Holding throughout (type): cell-based
One experiment has as its target T1, ABCB4 WT (Homo sapiens, UniProt P21439).
T1 construct: expressed in transfected cells
The experiment can be described thus: ABCB4 WT assay: HiBit protein expression. The conditions noted are these: HEK-293 cells stably expressing HiBit-tagged ABCB4 WT; 24 h treatment; top concentration 30 μM; read-out: ABCB4 WT EC50, Emax. The essentials: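 HEK-293 cells stably expressing HiBit-tagged human ABCB4 WT, treated 24 h at 37 °C with 11-dose 3-fold dilutions, top final 30 μM in 0.3% DMSO. HiBit lytic reagent luminescence read after 1 h at 25 °C; Emax and EC50 derived.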

Another experiment has as its target T2, ABCD2 WT (Homo sapiens, UniProt Q9UBJ2).
T2 construct: expressed in transfected cells
T2 sequence (Q9UBJ2 1-740): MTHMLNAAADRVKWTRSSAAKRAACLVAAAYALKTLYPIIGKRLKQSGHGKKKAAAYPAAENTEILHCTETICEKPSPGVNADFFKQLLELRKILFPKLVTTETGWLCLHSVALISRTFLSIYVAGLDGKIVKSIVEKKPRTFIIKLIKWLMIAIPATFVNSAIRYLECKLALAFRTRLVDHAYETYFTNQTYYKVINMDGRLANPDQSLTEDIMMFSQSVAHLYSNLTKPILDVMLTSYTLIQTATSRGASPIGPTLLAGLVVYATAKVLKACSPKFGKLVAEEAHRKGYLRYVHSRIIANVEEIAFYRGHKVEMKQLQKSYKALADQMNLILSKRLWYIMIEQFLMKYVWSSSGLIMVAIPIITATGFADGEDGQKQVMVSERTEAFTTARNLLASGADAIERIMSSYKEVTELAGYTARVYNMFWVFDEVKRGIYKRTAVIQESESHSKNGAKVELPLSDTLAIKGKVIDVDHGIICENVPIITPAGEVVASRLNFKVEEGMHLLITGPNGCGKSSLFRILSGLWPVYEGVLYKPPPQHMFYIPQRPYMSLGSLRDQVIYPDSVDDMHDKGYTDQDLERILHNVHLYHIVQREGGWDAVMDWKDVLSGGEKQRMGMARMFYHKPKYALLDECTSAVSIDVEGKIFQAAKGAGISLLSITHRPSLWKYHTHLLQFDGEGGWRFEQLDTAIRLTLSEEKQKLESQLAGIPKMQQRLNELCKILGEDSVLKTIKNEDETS
As to the kind of experiment: D2 correction dose-response assay: ABCD2 WT HiBit protein expression. The conditions noted are these: HEK-293/ABCD2 WT cells, 24 hours treatment, HiBit luminescence; class combines EC50 and Mean MaxAct (fold); read-out: ABCD2 WT EC50, Emax. Put shortly: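 HEK-293 cells stably expressing HiBit-tagged human ABCD2 WT were treated with 11 doses (3-fold dilutions, top final 30 μM, 0.3% DMSO) for 24 h at 37 °C. Expression was measured by HiBit lytic luminescence after 1 h at 25 °C, giving EC50 and Emax.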
In general terms: The HiBiT peptide binds its large partner to form an active luciferase.

In another experiment the target is T3, ABCA4 P1380L (Homo sapiens, UniProt P78363, P1380L).
T3 construct: expressed in transfected cells
The experiment can be described thus: A4 correction dose-response assay: ABCA4 P1380L HiBit protein expression. The conditions noted are these: HEK-293 cells stably expressing HiBit-tagged ABCA4 P1380L; 24 h treatment; top concentration 30 μM; read-out: ABCA4 P1380L EC50, Emax. Put shortly:
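Cells transfected with HiBit-tagged human ABCA4 P1380L cDNA were treated for 24 h at 37°C with an eleven-point dilution series (top final 30 μM, 0.3% DMSO).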

Molecules are shown by their SMILES. Some results are limits rather than exact numbers.

T1 sequence (P21439 whole entry): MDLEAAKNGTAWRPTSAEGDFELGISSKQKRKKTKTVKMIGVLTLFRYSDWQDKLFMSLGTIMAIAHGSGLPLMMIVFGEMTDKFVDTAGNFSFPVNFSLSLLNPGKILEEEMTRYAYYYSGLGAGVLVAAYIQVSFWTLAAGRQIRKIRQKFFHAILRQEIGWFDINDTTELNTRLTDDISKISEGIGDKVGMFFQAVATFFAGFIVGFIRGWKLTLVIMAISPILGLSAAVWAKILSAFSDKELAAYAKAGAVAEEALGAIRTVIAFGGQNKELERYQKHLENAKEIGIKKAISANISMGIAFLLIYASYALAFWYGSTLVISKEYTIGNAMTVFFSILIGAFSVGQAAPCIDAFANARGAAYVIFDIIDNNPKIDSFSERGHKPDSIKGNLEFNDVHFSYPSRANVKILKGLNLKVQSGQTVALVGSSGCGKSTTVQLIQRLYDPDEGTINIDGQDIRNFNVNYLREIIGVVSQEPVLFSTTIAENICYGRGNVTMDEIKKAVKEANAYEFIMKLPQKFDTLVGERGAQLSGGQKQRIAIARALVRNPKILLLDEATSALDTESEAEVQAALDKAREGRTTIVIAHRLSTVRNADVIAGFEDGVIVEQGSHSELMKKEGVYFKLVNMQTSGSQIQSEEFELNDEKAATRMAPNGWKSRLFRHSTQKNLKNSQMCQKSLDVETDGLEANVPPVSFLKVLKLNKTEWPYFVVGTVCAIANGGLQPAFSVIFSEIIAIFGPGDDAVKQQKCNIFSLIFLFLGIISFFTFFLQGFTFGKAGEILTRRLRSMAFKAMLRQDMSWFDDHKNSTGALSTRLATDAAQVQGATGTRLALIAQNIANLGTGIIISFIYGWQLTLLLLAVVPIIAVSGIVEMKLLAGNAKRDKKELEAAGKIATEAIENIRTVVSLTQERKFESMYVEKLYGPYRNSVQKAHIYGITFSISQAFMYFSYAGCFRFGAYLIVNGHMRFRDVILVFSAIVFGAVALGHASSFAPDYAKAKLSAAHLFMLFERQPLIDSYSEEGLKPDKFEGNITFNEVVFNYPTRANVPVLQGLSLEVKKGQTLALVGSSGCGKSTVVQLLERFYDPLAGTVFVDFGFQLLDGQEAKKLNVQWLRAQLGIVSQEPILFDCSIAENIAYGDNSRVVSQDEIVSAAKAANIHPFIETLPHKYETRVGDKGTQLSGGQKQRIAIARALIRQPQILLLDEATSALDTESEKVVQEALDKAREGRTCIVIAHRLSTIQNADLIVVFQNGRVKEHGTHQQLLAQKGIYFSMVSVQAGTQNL
T3 sequence (P78363 whole entry P1380L): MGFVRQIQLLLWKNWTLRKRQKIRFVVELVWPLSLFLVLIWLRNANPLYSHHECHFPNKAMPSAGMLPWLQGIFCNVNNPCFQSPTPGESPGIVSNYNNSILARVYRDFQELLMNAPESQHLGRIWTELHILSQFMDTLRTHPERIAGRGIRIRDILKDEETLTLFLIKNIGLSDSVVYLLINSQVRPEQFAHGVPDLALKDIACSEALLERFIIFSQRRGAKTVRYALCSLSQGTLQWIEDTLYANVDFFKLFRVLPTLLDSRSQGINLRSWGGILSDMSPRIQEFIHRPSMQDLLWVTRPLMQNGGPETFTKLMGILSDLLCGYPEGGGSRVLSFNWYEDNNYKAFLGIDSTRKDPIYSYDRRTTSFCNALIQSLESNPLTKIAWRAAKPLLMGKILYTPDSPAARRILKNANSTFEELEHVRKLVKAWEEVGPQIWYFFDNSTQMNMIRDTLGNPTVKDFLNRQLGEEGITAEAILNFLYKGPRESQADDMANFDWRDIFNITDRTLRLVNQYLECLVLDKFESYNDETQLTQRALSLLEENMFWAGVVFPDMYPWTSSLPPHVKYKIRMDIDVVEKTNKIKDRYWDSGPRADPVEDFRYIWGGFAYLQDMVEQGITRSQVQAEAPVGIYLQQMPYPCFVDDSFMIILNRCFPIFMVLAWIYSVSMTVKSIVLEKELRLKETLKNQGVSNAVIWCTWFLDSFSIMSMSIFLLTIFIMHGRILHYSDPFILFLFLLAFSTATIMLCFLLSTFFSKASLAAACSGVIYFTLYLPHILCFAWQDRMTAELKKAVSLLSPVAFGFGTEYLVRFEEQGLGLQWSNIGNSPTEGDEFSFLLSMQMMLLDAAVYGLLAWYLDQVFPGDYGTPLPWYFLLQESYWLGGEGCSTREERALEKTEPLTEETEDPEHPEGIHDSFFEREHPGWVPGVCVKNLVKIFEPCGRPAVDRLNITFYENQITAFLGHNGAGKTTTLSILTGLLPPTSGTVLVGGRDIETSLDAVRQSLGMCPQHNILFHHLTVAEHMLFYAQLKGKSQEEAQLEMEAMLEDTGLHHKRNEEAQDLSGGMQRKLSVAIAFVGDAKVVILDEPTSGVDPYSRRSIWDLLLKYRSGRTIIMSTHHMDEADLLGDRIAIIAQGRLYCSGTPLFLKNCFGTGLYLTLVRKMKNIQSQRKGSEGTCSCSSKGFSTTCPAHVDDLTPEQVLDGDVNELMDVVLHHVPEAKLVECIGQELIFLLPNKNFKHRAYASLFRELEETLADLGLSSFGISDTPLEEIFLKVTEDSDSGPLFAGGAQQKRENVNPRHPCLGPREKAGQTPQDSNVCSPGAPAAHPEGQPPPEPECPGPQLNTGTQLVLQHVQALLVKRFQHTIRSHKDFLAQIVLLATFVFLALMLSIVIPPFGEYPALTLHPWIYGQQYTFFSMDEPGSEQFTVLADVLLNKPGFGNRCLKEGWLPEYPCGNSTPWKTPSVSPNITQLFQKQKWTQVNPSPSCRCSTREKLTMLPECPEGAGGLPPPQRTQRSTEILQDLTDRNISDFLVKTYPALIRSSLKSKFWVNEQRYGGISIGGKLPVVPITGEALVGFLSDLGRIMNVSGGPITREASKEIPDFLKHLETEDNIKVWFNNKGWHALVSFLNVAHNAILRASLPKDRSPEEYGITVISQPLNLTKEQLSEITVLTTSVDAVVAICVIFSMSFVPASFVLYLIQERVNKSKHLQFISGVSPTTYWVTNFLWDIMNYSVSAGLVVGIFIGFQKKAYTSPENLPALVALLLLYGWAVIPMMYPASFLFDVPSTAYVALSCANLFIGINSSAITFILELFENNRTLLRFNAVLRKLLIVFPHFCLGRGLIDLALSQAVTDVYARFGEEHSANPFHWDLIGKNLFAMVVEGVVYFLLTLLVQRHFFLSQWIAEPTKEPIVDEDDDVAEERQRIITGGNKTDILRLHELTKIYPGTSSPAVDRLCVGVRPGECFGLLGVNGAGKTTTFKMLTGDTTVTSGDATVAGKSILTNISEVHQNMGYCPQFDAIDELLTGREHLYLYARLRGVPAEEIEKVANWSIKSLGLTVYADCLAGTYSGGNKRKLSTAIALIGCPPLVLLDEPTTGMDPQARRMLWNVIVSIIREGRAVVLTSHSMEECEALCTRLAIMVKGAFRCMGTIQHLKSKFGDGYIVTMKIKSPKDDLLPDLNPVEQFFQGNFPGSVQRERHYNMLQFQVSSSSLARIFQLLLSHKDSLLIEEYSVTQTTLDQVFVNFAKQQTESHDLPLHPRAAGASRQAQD

As usually defined, the EC50 is the midpoint of the concentration-response curve. Take `Cc1cc(C)c(Oc2nc(-c3c[nH]c(=O)c(C#N)c3)ccc2NS(C)(=O)=O)c(C)n1` [Compound I-307]: the EC50 is ≥ 25 µM at ABCB4 WT, 1 to 10 µM on ABCD2 WT and > 25 µM at ABCA4 P1380L.
The like results for `CNS(=O)(=O)c1ccc(-c2cncc(C#N)c2)nc1Oc1nc(C2CC2)sc1C` [Compound I-308] were, in that order, < 25 µM, > 25 µM and > 25 µM.
The like results for `Cc1nc(C(F)(F)F)nc(C2CC2)c1Oc1nc(-c2cncc(C#N)c2)ccc1S(=O)(=O)Nc1cnn(C)c1` [Compound I-309] were, in that order, < 1 µM, 1 to 10 µM and > 25 µM.
The like results for `Cc1nc(C(F)(F)F)nc(C2CC2)c1Oc1nc(-c2cncc(C#N)c2)ccc1S(=O)(=O)Nc1cccnc1` [Compound I-310] were, in that order, ≥ 25 µM, 1 to 10 µM and > 25 µM.
For `Cc1cc(C)[n+]([O-])c(C)c1Oc1nc(-c2cncc(C#N)c2)ccc1NS(C)(=O)=O` [Compound I-311], the EC50 at ABCB4 WT, on ABCD2 WT and on ABCA4 P1380L was 1 to 10 µM each time.
On to `CNS(=O)(=O)c1ccc(-c2cncc(C#N)c2)nc1Oc1nc(C)sc1C1CC1` [Compound I-312], for which the EC50 at ABCB4 WT is ≥ 25 µM; on ABCD2 WT, > 25 µM; on ABCA4 P1380L, > 25 µM.
For `CNS(=O)(=O)c1ccc(-c2cncc(C#N)c2)nc1Oc1c(C)nc(C(F)F)nc1C1CC1` [Compound I-313], the results for the EC50 on ABCB4 WT, at ABCD2 WT and at ABCA4 P1380L were 1 to 10 µM, > 25 µM and 10 to 25 µM, respectively.
The like results for `Cc1nc(C(F)F)nc(C2CC2)c1Oc1nc(-c2cncc(C#N)c2)ccc1S(=O)(=O)NC1CC1` [Compound I-314] were, in that order, 1 to 10 µM, > 25 µM and > 25 µM.
The like results for `CNS(=O)(=O)c1ccc(-c2cncc(C#N)c2)nc1Oc1c(C)nc(C(F)(F)F)nc1C1CC1` [Compound I-315] were, in that order, ≥ 25 µM, 10 to 25 µM and > 25 µM.
For `Cc1cc(C)c(Oc2nc(-c3cccc(C#N)c3)ccc2S(=N)(=O)C2CC2)c(C)n1` (stereo not drawn) [Compound I-316] the same measures were 1 to 10 µM, 10 to 25 µM and 1 to 10 µM.

Source of the values: patent US20250228835A1, “PYRIDINYLOXYPYRIDINES AND RELATED COMPOUNDS AND THEIR USE IN TREATING MEDICAL CONDITIONS” (Rectify Pharmaceuticals, Inc., priority 2024, published 2025).
